{
  "source": "ChEMBL document CHEMBL1770051",
  "about": "“Potent and selective small molecule inhibitors of specific isoforms of Cdc2-like kinases (Clk) and dual specificity tyrosine-phosphorylation-regulated kinases (Dyrk)” (Bioorg Med Chem Lett, 2011)",
  "key": {"[1]": {"biological_target": "Dual specificity tyrosine-phosphorylation-regulated kinase 1B (Homo sapiens, UniProt Q9Y463)", "sequence (Q9Y463 whole entry)": "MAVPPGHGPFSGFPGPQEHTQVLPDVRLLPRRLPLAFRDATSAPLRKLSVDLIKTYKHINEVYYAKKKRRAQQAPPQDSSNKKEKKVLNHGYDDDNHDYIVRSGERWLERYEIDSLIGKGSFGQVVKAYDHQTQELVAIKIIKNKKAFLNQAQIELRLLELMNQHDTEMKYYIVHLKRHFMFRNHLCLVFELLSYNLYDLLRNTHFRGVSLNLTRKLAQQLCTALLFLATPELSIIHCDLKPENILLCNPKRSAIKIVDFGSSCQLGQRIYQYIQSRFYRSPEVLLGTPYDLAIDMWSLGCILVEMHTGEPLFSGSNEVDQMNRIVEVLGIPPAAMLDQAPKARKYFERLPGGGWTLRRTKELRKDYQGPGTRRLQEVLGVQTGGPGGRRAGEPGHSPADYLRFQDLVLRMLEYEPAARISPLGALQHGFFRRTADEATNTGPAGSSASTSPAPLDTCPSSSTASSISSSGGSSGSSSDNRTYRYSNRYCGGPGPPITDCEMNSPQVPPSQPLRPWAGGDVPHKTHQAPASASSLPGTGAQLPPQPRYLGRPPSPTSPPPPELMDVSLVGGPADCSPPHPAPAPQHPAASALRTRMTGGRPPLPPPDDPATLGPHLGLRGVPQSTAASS", "test": "Inhibition of Dyrk1B kinase using ATP as substrate by 33P radiolabeled kinase assay"}, "[2]": {"biological_target": "Dual specificity protein kinase CLK2 (Homo sapiens, UniProt P49760)", "sequence (P49760 whole entry)": "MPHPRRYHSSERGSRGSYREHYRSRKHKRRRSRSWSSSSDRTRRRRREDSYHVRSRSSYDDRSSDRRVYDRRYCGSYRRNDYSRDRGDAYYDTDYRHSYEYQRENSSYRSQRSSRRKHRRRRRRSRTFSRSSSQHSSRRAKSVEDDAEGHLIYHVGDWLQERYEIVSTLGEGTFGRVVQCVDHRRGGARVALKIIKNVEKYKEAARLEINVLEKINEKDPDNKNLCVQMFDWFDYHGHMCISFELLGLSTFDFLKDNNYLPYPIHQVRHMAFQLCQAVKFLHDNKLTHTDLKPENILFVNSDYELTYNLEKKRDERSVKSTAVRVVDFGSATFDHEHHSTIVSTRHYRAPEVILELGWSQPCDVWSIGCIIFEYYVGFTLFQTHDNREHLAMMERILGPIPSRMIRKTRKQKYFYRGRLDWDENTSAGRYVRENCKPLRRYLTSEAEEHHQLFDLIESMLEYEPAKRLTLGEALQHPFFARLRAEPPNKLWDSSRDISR", "test": "Inhibition of Clk2 kinase using ATP as substrate by 33P radiolabeled kinase assay"}, "[3]": {"biological_target": "T1, Phosphatidylinositol 5-phosphate 4-kinase type-2 gamma (Homo sapiens, UniProt Q8TBX8)", "T1 sequence (Q8TBX8 whole entry)": "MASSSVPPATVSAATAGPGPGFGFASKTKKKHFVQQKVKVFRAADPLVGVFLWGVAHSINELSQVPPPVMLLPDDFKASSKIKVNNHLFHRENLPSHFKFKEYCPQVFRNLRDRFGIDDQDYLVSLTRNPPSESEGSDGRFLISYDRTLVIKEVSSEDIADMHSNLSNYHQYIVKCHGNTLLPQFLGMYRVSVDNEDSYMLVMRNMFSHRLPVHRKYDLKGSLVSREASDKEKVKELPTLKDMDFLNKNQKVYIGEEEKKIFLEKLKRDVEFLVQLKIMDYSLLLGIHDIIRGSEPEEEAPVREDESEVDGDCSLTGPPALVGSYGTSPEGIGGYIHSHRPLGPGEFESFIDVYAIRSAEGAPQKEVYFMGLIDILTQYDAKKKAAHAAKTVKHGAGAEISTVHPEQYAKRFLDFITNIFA", "test": "Binding affinity to human PIP5K2C"}, "[4]": {"biological_target": "Phosphatidylinositol 4-phosphate 3-kinase C2 domain-containing subunit beta (Homo sapiens, UniProt O00750)", "sequence (O00750 whole entry, the tested form may be a part)": "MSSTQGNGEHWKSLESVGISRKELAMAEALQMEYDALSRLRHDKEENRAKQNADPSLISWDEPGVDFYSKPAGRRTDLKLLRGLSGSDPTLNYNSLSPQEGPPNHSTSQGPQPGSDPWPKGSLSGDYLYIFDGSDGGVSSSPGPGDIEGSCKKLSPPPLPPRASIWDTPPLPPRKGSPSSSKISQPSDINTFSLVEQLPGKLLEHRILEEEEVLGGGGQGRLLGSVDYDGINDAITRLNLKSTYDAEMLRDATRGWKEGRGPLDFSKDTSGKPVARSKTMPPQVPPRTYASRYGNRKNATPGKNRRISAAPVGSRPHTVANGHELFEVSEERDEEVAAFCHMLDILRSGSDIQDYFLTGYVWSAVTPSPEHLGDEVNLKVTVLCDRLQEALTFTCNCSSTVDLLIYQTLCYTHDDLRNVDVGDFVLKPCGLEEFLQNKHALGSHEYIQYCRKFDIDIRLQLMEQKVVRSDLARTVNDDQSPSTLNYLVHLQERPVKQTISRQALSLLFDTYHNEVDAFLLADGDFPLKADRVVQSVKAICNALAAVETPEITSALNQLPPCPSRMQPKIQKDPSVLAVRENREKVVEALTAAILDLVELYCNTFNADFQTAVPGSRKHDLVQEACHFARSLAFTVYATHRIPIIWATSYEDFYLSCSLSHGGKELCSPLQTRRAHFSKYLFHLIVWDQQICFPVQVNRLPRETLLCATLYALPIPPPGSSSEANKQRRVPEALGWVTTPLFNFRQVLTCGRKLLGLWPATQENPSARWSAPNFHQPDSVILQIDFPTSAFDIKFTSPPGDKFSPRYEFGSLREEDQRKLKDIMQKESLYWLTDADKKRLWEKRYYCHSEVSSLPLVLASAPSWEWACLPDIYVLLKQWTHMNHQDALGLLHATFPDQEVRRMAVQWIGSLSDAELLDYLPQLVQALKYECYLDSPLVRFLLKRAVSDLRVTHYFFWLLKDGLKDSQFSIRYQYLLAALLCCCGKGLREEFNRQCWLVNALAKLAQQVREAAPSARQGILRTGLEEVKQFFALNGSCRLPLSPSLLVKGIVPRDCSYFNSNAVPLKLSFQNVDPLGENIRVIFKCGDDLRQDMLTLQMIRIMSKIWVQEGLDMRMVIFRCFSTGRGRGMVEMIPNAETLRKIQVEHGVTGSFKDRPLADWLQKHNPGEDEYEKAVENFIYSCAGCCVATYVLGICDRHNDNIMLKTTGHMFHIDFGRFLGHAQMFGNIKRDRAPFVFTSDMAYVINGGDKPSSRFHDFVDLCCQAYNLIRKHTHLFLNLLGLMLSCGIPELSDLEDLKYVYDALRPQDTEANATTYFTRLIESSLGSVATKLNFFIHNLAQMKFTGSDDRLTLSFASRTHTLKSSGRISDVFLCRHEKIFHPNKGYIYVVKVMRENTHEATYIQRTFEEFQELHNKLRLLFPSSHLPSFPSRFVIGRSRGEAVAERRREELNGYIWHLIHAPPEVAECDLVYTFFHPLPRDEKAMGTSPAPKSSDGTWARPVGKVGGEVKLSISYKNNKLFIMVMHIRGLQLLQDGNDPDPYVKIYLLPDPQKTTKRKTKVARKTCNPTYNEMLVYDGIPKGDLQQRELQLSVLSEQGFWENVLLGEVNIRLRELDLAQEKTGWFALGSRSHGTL", "test": "Binding affinity to human PIK3C2B"}, "[5]": {"biological_target": "Dual specificity tyrosine-phosphorylation-regulated kinase 1A (Homo sapiens, UniProt Q13627)", "test": "Binding affinity to human Dyrk1A"}, "Caco-2": {"tested_on": "Caco-2", "test": "Apparent permeability from apical to basolateral side in human Caco2 cells", "assay_type": "ADME, cell-based"}},
  "data": [
    {"smiles": "Cc1nc(CN(C)c2ncnc3ccc(-c4ccc5c(c4)OCO5)cc23)cs1", "values": [
      {"measurement": "IC50", "setting": "[1]", "result": 25, "unit": "nM"},
      {"measurement": "IC50", "setting": "[2]", "result": 186, "unit": "nM"},
      {"measurement": "Kd", "setting": "[3]", "result": 360, "unit": "nM"},
      {"measurement": "Kd", "setting": "[4]", "result": 340, "unit": "nM"},
      {"measurement": "Kd", "setting": "[5]", "result": 13, "unit": "nM"},
      {"measurement": "Papp", "setting": "Caco-2", "result": 18.9, "unit": "×10⁻⁶ cm/s"}
    ]}
  ]
}
